“Also recorded” adds a separate entry of the source.
How the values were obtained:
[1] = tested on: insulin-resistant high-fat fed mice; assay: Oral glucose tolerance test in HFD-fed mice; type: in vivo, mouse; details: for basal glycemia: 30 minutes after oral administration; for area under the glucose excursion curve / glucose tolerance: OGTT, gavage 30 min prior
Description: Area under the curve (AUC), *p<0.05 compared to vehicle. […] Area above the curve (AAC). *p<0.05 compared to vehicle. […] Area under the curve (AUC). *p<0.05 compared to vehicle. FIG. 53D is a bar graph showing serum insulin levels 5 min post glucose challenge in chow-fed mice gavaged with 5-PAHSA or vehicle (glucose values shown in FIG. 53C). n=12-14 per group, *p<0.05 compared to vehicle by t-test. FIG. 53E is a bar graph showing serum GLP-1 levels 5 min post glucose challenge from chow-fed mice gavaged with 5-PAHSA or vehicle (glucose levels in FIG. 53C). n=12-14 per group, *p<0.05 compared to vehicle by t-test. FIG. 53F are bar graphs showing insulin secretion from primary human islets from two independent donors. Islets were incubated with low (2.5 mM) or high (20 mM) glucose ex vivo in the presence of 5-PAHSA (20 μM) or vehicle control. n=100 islets per condition, *p<0.05 compared to control 2.5 mM glucose, ^#p<0.05 compared to respective treatments at 2.5 mM glucose, ^$p<0.05 compared to control or diluents at 20 mM glucose by t-test. FIG. 53G are bar graphs showing active GLP-1 secretion from STC-1 cells in response to 5-PAHSA (5-P), 9-PAHSA (9P), […] (LA), GW9508 (GW) or vehicle control (DMSO). n=4 per group, *p<0.05 compared to vehicle by t-test. All data are mean±s.e.m. See also FIG. 56.

[2] = tested on: Ins1 cells; assay: Insulin release in INS1 cells; type: cell-based; details: 25 mM glucose in the media
Description: Ins1 cells (FIG. 21) or primary rat islet cells (FIG. 22) were seeded in 24 well-plates [˜10^6 cells/well]. At confluence, cells were incubated with Low Serum [2.5%] and Low Glucose [2.5 mM] media for 12 hours. Next, cells were incubated with KRB buffer for 1 h and stimulated with glucose in the presence of 5-PAHSA (FIG. 21) or 9-PAHSA (FIG. 21) for 45 min in KRB. At the end of the stimulation, 100 μL of media was collected and 10 μL was used to quantitate the amount of insulin released by ELISA. Treatment Conditions for FIGS. 21 and 22 were: • 5-PAHSA or 9-PAHSA [Stock]=20.0 mM [10.76 mg/mL Methanol] • A] 1 uM=0.3 uL/6 mL [Amount of methanol/mL=0.05 uL] • B] 5 uM=1.5 uL/6 mL [Amount of methanol/mL=0.25 uL] • C] 10 uM=3.0 uL/6 mL [Amount of methanol/mL=0.50 uL] • D] 20 uM=6.0 uL/6 mL [Amount of methanol/mL=1.00 uL]
INS-1 cells were seeded in 24 well-plates [˜10^6 cells/well] and at 80% confluence, were cultured overnight in RPMI 1640 medium containing 2.5 mM glucose and 2.5% fetal bovine serum supplemented with 100 IU/ml penicillin and […], 1 mM sodium pyruvate, 2-mercaptoethanol (50 μM) and 10 mM HEPES (pH 7.4). […] At the end of the stimulation supernatant was collected and insulin released into the medium was quantified by ELISA as per manufacturer's protocol. […]

[3] = target: T1, GPR120 (Homo sapiens, UniProt Q5NUL3); assay: PathHunter beta-Arrestin GPCR assay; type: cell-based
T1 construct: beta-galactosidase enzyme fragment (ProLink)
T1 sequence (Q5NUL3 1-377 isoform Q5NUL3-1): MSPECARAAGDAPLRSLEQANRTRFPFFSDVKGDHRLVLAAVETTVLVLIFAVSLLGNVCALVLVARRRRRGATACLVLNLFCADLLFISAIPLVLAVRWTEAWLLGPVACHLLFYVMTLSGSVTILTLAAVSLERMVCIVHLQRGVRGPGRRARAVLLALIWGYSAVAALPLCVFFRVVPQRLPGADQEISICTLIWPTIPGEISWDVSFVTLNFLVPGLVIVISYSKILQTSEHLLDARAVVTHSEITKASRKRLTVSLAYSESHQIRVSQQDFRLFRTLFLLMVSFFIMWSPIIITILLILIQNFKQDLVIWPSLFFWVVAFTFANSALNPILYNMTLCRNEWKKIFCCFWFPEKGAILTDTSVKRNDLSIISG
Description: FIGS. 57A and 57B are graphs showing GPR120 activation by 9-PAHSA and GPR120 knockdown in 3T3-L1 adipocytes. Specifically, FIG. 57A depicts a GPR120 activity assay using the PathHunter® eXpress GPR120L β-Arrestin GPCR Assay (DiscoverX). n=3 wells per condition. FIG. 57B is a bar graph showing validation of GPR120 knockdown in differentiated 3T3-L1 adipocytes. 3T3-L1 adipocytes (Day 8 post differentiation) were transfected with non-targeting (control) siRNA or three individual GPR120 targeting siRNA's individually or in combination. 48 h post-transfection GPR120 mRNA levels were measured by qPCR and normalized to TBP mRNA levels. n=3 wells per condition.
For the experiments summarized in FIGS. 43-45, the fragment based GPCR assay from DiscoveRx (PATHHUNTER® β-Arrestin assay) was used to as per manufacturer's instructions to determine activation of specific GPCRs as indicated in FIGS. 43-45.

[4] = tested on: STC-1 cells; assay: GLP-1 secretion from STC-1 enteroendocrine cells (ELISA); type: cell-based
Description: For the experiments summarized in FIG. 41 STC-1 cells were incubated with vehicle (DMSO), 9-PAHSA, 5-PAHSA or 9-OAHSA at the indicated concentrations or lineolic acid (100 uM) as a positive control. Media was harvested and GLP-1 was measured by ELISA.
For the experiments summarized in FIG. 42, the same protocol as described for FIG. 41 was used, except in this experiment a time course was performed. For both FIG. 41 and FIG. 42, for GLP-1 secretion STC1 cells were washed 3× with serum free culture media followed by stimulation with FAHFAs or vehicle at the indicated concentrations and timepoints. Levels of active GLP-1 were measured by ELISA.

Compound | basal glycemia [1] | area under the glucose excursion curve [1] | glucose tolerance [1] | insulin secretion [2] | GPR120 activation [3] | GLP-1 secretion [4] | time course for GLP-1 secretion [4]
CCCCCCCCCCCCCCCC(=O)OC(CCCCCCCCCCCCC)CCCC(=O)O (stereo not shown) [5-PAHSA] | lowered basal glycemia | reduced area under the glucose excursion curve | improved glucose tolerance | potentiate insulin secretion | dose-dependently activated GPR120; also recorded: activate GPR120 | rapidly stimulated GLP-1 secretion; also recorded: induce GLP-1 secretion | –
CCCCCCCCCCCCCCCC(=O)OC(CCCCCCCCC)CCCCCCCC(=O)O (stereo not shown) [9-PAHSA, palmitoyl-9-hydroxystearic acid] | lowered basal glycemia | reduced area under the glucose excursion curve | improved glucose tolerance | potentiate insulin secretion | dose-dependently activated GPR120; also recorded: is a ligand for the GPCR, GPR120; also recorded: activate GPR120 | rapidly stimulated GLP-1 secretion; also recorded: induce GLP-1 secretion | very rapid and sustained

Source: patent US10604473B2, “Lipids that increase insulin sensitivity and methods of using the same” (Beth Israel Deaconess Medical Center, Inc., priority 2013, dated 2020)
